Measured values: patent US9808461B2, “Protection of renal tissues from ischemia through inhibition of the proliferative kinases CDK4 and CDK6” (The University of North Carolina at Chapel Hill, priority 2010, dated 2017)
Entries after “also recorded” stand apart in the source; their conditions may differ.

Assays:
[1] = test system: primary human renal proximal tubule epithelial cells; test: Cell cycle analysis (propidium iodide staining, flow cytometry); format: cell-based; conditions: 0, 10 nM, 30 nM, 100 nM, 300 nM or 1 μM for 16 hours
Experimental: Representative histograms of cell cycle analysis of primary human renal proximal tubule epithelial cells treated with varying concentrations (0 nM, 10 nM, 30 nM, 100 nM, 300 nM, or 1 μM) of 6-acetyl-8-cyclopentyl-5-methyl-2-(5-piperazin-1-yl-pyridin-2-ylamino)-8H-pyrido-[2,3-d]pyrimidin-7-one (PD0332991) for 16 hours. Cells were harvested, fixed, stained, and analyzed by flow cytometry. Data was fitted using Mod-Fit™ software from Verity (Verity Software House, Topsham, Me., United States of America). […] Cell cycle analysis of primary human renal proximal tubule epithelial cells treated with varying concentrations (0 nM, 10 nM, 30 nM, 100 nM, 300 nM, or 1 μM) of 6-acetyl-8-cyclopentyl-5-methyl-2-(5-piperazin-1-yl-pyridin-2-ylamino)-8H-pyrido-[2,3-d]pyrimidin-7-one (PD0332991) for 16 hours. Cells were harvested, fixed, stained, and analyzed by flow cytometry. Data was fitted using Mod-Fit™ software from Verity (Verity Software House, Topsham, Me., United States of America). […] Samples were processed and the DNA was stained with propidium iodide (PI) solution and analyzed by flow cytometry. FCS files from flow cytometer were further analyzed using cell cycle analysis software ModFit™ from Verity (Verity Software House, Topsham, Me., United States of America), where cell cycle fractions were calculated as a percentage of the whole population.

[2] = test system: primary human renal proximal tubule epithelial cells; test: Cell proliferation, CellTiter-Glo; format: cell-based; conditions: 10 nM to 3 μM, 72 hours post treatment
Experimental: Cells were treated with varying concentrations (0 nM, 10 nM, 30 nM, 100 nM, 300 nM, or 1 μM) of 6-acetyl-8-cyclopentyl-5-methyl-2-(5-piperazin-1-yl-pyridin-2-ylamino)-8H-pyrido-[2,3-d]pyrimidin-7-one (PD0332991) for 72 hours. Following incubation, cell proliferation was quantified using CellTiter-Glo® (Promega, Madison, Wis., United States of America). Data represent the mean of four replicates (relative light units, RLU)+/−standard deviation. Inhibition of CDK4/6 blocks the proliferation of normal human primary renal proximal tubule epithelial cells. These cells were seeded at an appropriate density in 96 well plates and incubated for 24 hours at 37° C. in a humidified incubator at 5% CO2. Cells were then exposed to a potent and selective CDK4/6 inhibitor, in this case PD0332991, across a broad dose range 24 hours later. The dose range explored is 0, 10 nM, 30 nM, 100 nM, 300 nM, 1 μM or 3 μM PD0332991. Seventy-two hours post exposure, the CDK4/6 inhibited cells were treated with CellTiter-Glo® (Promega, Madison, Wis., United States of America) using manufacturer's specifications. The plate was read in luminometer at 1 second/well. Results were placed in Microsoft Excel and analyzed.

[3] = test system: renal epithelial cells; test: BrdU incorporation into renal epithelial cells after ischemia reperfusion injury; format: in vivo, mice
Experimental: FIG. 3A is a schematic diagram showing a dosing schedule for studies of 5-bromo-2-deoxyuridine (BrdU) incorporation into epithelial cells following ischemic reperfusion injury after a single dosing of a CDK4/6 inhibitor. Mice were treated with 6-acetyl-8-cyclopentyl-5-methyl-2-(5-piperazin-1-yl-pyridin-2-ylamino)-8H-pyrido-[2,3-d]pyrimidin-7-one (PD0332991; 150 mg/kg) or vehicle (sodium lactate buffer) by oral gavage one hour before ischemic reperfusion injury. BrdU (100 mg/kg) was administered via i.p. injection 21 hours after injury. Mice were sacrificed 3 hours after the BrdU injection, and BrdU incorporation into the renal epithelial cells was quantified. […] Three hours following the second injection of BrdU, the mice were sacrificed and BrdU incorporation into the renal epithelial cells was quantified. […] Kidney cell proliferation following ischemia reperfusion injury (IRI) was monitored (based on BrdU incorporation in renal epithelial cells) following a one time, pre-IRI PD0332991 or vehicle (sodium lactate buffer) dosing as shown in FIG. 3A and following a two time (once pre-IRI and once post-IRI) PD0332991 or vehicle dosing as shown in FIG. 3B. […] BrdU positive (BrdU(+)) cells were quantified visually by counting the number of BrdU(+) cells in a field of kidney epithelial cells under magnification. […]

[4] = Serum creatinine after bilateral ischemia reperfusion injury; format: in vivo, mice; conditions: 150 mg/kg oral gavage 1 hour prior to bilateral IRI; N=9; vehicle group 2.27
Experimental: PD0332991 was dissolved in 50 mM sodium lactate buffer (pH 4.0) to a final concentration of 15 mg/mL. Mice were treated with a 150 mg/kg dose of PD0332991, or vehicle, 1 hour prior to ischemia reperfusion surgery by oral gavage. 8 week old male mice were anesthetized with pentobarbital sodium (60 mg/kg body weight, intraperitoneally) prior to surgery. Body temperatures were controlled at 36.5° C.-37.5° C. throughout the procedure. Bilateral flank incisions into the peritoneum allowed access to both kidneys. Kidneys were exposed and ischemia was induced by simultaneously clamping the renal pedicle of both kidneys with nontraumatic microaneurysm clamps (Roboz, Rockville, Md.). Clamped kidneys were placed back into the peritoneal cavity for 28 minutes, and clamps were then removed resulting in reperfusion injury. The flank incisions were closed with wound clips and the mice were allowed to recover in their home cages. […] Serum creatinine was measured by the Beckman Creatinine Analyzer 2, which utilizes a 10 mM picric acid solution mixed with a buffer containing 10 mM sodium borate, 240 mM sodium hydroxide, and 10 mM sodium dodecyl sulfate (SDS). Serum creatinine is measured against a creatinine standard and recorded as milligrams per deciliter.

Question: Which “G1 cell cycle arrest” value [1] does the source give for `CC(=O)c1c(C)c2cnc(Nc3ccc(N4CCNCC4)cn3)nc2n(C2CCCC2)c1=O` [PD0332991, 6-acetyl-8-cyclopentyl-5-methyl-2-(5-piperazin-1-yl-pyridin-2-ylamino)-8H-pyrido-[2,3-d]-pyrimidin-7-one] here?
Answer: induces a G1 arrest; also recorded: “clean” G1-arrest without evidence of cytotoxicity

Question: What about the “cell cycle fractions (G0/G1, G2/M, S-phase)” value [1] of the same molecule?
Answer: dose dependent increase in the G0/G1 fraction of the cell cycle was observed with a consummate decrease in both G2/M and S-phase fractions

Question: What about the “cell proliferation (relative light units) compared to DMSO control” value [2] of the same molecule?
Answer: clear dose dependent inhibition of cell proliferation; also recorded: blocks proliferation

Question: What about the “BrdU(+) renal epithelial cells 24 hours after injury, versus vehicle” value ([3]; 150 mg/kg oral gavage one time, 1 hour before IRI (FIG. 3A schedule)) of the same molecule?
Answer: significantly less BrdU(+) cells; also recorded: prevents epithelial cells from entering S-phase

Question: What about the “BrdU incorporation in renal epithelial cells 48 hours after injury, versus vehicle” value ([3]; 150 mg/kg oral gavage two doses, once pre-IRI and once post-IRI (FIG. 3B schedule)) of the same molecule?
Answer: less BrdU incorporation; also recorded: prevents epithelial cells from entering S-phase

Question: And the “average serum creatinine 24 hours after surgery” value [4]?
Answer: 1.74 mg/dL
